Test results as given in patent US7670613B2, “Androgen modulators” (Pfizer Inc., priority 2004, dated 2010).
Substitutions are numbered along the chain they refer to. pIC50: −log10 of the molar value. Where two headings read alike, the source gives them in different places.

Tests used:
[1] = after 7 years of treatment; cited from earlier work
androgen receptor = biological target: T1, androgen receptor (Homo sapiens, UniProt P10275, Q868H); assay: AR antagonist cell assay (MDA-MB453-MMTV clone 54-19, luciferase reporter); assay type: cell-based; conditions: 100 pM DHT, 17 hr, mean of multiple tests
T1 construct: a human breast tumor cell line expressing androgen receptor; endogenous in cells; host or cells: MDA-MB453-MMTV clone 54-19 (only the MMTV-luciferase reporter was transfected)
T1 sequence (P10275 1-920 Q868H): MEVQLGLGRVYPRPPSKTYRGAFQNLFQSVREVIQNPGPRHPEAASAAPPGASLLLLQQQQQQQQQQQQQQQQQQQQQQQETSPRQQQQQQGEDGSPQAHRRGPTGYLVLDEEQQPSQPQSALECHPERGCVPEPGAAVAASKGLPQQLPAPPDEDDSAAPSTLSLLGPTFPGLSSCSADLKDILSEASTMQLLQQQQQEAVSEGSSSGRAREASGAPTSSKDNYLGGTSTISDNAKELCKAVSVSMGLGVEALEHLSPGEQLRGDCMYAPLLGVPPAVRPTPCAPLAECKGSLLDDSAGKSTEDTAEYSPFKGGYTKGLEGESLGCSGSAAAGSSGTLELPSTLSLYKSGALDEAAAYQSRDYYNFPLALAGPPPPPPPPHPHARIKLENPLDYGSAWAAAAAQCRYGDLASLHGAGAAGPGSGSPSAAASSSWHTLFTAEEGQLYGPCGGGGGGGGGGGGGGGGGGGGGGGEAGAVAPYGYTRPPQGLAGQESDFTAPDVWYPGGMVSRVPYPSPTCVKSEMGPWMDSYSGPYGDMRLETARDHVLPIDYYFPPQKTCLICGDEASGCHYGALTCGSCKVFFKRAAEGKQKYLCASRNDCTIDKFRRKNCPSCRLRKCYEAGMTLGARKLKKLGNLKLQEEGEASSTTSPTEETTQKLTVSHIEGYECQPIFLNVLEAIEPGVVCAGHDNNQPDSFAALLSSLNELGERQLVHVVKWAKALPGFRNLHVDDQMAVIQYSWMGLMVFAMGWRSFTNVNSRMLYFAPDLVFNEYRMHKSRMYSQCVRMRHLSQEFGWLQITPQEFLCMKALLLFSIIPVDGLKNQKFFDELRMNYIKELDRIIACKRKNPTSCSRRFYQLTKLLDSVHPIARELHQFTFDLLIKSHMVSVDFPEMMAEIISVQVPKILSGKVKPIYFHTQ
Description: The compounds ability to antagonize the effects of androgen on the androgen receptor were determined in a whole cell assay as described immediately below.
Experimental Procedure for AR Antagonist Cell Assay
This cell line is a stable transfected cell line with MDA-MB453 cell background (a human breast tumor cell line expressing androgen receptor). A MMTV minimal promoter containing ARE was first cloned in front of a firefly luciferase reporter gene. Then the cascade was cloned into transfection vector pUV120puro. Electroporation method was used for transfecting MDA-MB-453 cell. Puromycin resistant stable cell line was selected.
Cell Culture Media and Reagents:
Culture medium: DMEM (high glucose, Gibco cat #: 11960-044), 10% FBS, and 1% L-glutamine
Plating medium: DMEM (phenol red free), 10% charcoal treated HyClone serum, 1% L-glutamine
Assay medium: DMEM (phenol red free), 1% charcoal treated HyClone serum, 1% L-glutamine, and 1% penicillin/streptomycin
3× luciferase buffer: 2% beta-mercaptoethanol, 0.6% ATP, 0.0135% luciferine in cell lysis buffer
• 1. Cells are maintained in culture medium, splitting cells when they reach 80-90% confluence • 2. To test compounds, 10,000 cells/well are plated to opaque 96 cell culture plate in 100 ul/well plating medium, culture for overnight at 37° C. in cell culture incubator • 3. Carefully remove plating medium, then add 80 ul/well of pre-warmed assay medium, add 10 ul/well testing compound (final concentration at) 1000 nM, 200 nM, 40 nM, 8 nM, 1.6 nM, and 0.32 nM), incubate at 37° C. for 30 minutes • 4. Add 10 ul/well freshly prepared DHT (final concentration at 100 pM) to each well, incubate at 37° C. for 17 hr (overnight) • 5.
The results are reported as the mean of multiple tests as described below (the numbers of tests are indicated in the footnote). N.D. denotes that the compound was not tested.

hAR = biological target: T2, hAR (Homo sapiens, UniProt P10275); assay: Competitive binding analysis on baculovirus/Sf9 generated hAR extracts with 3H-DHT tracer; conditions: 1 nM 3H-DHT, one hour at 4° C., mean of multiple tests
T2 construct: made in house; host or cells: baculovirus/Sf9 insect cells
T2 sequence (P10275 1-920): T1 sequence (P10275 1-920 Q868H) with H868Q
Description: The description below describes how the assay was carried out.
Competitive binding analysis was performed on baculovirus/Sf9 generated hAR extracts in the presence or absence of different concentrations of test agent and a fixed concentration of ^3H-dihydrotestosterone (^3H-DHT) as tracer. This binding assay method is a modification of a protocol previously described (Liao S., et. al. J. Steroid Biochem. 20:11-17 1984). Briefly, progressively decreasing concentrations of compounds are incubated in the presence of hAR extract (Chang et al. P.N.A.S. Vol. 89, pp. […], 1992), hydroxylapatite, and 1 nM ^3H-DHT for one hour at 4° C. Subsequently, the binding reactions are washed three times to completely remove excess unbound ^3H-DHT. hAR bound ^3H-DHT levels are determined in the presence of compounds (i.e. competitive binding) and compared to levels bound when no competitor is present (i.e. maximum binding). Compound binding affinity to the hAR is expressed as the concentration of compound at which one half of the maximum binding is inhibited.

[2] = MDA-MB453-MMTV clone 54-19 cells, read-out: AR Cell IC50
[3] = hAR extract, read-out: AR Binding IC50
[4] = AR Cell IC50, MDA-MB453-MMTV clone 54-19 cells

Row | Structure (SMILES) | Increase in spinal BMD [1] | pIC50 (androgen receptor; [2]) | pIC50 (hAR; AR Binding IC50, hAR extract) | pIC50 (hAR; [3]) | pIC50 (androgen receptor; [4])
1 | NCCCC(O)(P(=O)(O)O)P(=O)(O)O [alendronate] | ≤ 11% |  |  |  | 
2 | C=CCC1(Oc2ccc(C#N)c(C(F)(F)F)c2)CCCCC1 [Example 4, 4-(1-Allyl-cyclohexyloxy)-2-trifluoromethyl-benzonitrile] |  | < 6.00 | 7.32 |  | 
3 | CC1CCCC(Oc2ccc(C#N)c(Cl)c2)C1C (stereo not drawn) [Example 52, 2-Chloro-4-(2,3-dimethyl-cyclohexyloxy)-benzonitrile] |  | 6.51 | 7.14 |  | 
4 | N#Cc1ccc(OC2CCC2)cc1Cl [Example 68, 2-Chloro-4-cyclobutyloxy-benzonitrile] |  | 6.99 |  | 6.53 | 
5 | N#Cc1ccc(O[C@H]2CCCC[C@@H]2c2ccccc2)cc1C(F)(F)F [Example 3, 4-(2-(R)-Phenyl-1-(S)-cyclohexyloxy)-2-trifluoromethyl-benzonitrile] |  | < 6.00 | 7.14 |  | 
6 | CO[C@H]1CCC[C@H]1Oc1ccc(C#N)c(Cl)c1 (relative stereo) [Example 34, 2-Chloro-4-(cis-2-methoxy-cyclopentyloxy)-benzonitrile] |  | 6.47 | 6.76 |  | 
7 | N#Cc1ccc(O[C@H]2CCCC[C@@H]2c2ccccc2)cc1Cl [Example 55, (1S,2R)-2-Chloro-4-(2-phenyl-cyclohexyloxy)-benzonitrile] |  | 6.38 | 6.58 |  | 
8 | N#Cc1ccc(OC2CCCCC2)cc1C(F)(F)F [Example 11, 4-Cyclohexyloxy-2-trifluoromethyl-benzonitrile] |  |  |  | 6.41 | 9.30
9 | CC1(O)C[C@@H]2C[C@H]1CC2Oc1ccc(C#N)c(C(F)(F)F)c1 (stereo in doubt) [Example 1, 4-(5-Hydroxy-5-methyl-bicyclo[2.2.1]hept-2-yloxy)-2-trifluoromethyl-benzonitrile] |  |  |  | 6.18 | 7.10
10 | C[C@H]1CCC[C@@H]1Oc1ccc(C#N)c(Cl)c1 [Example 67, (1S,2S)-2-Chloro-4-(2-methyl-cyclopentyloxy)-benzonitrile] |  | > 9.49 | 7.36 |  | 
11 | C[C@@H]1CCCC[C@@H]1Oc1ccc(C#N)c(Cl)c1 [Example 40, (1S,2R)-2-Chloro-4-(2-methyl-cyclohexyloxy)-benzonitrile] |  | 6.94 | 7.51 |  | 
12 | CCC1CCCCC1Oc1ccc(C#N)c(Cl)c1 (stereo not drawn) [Example 27, 2-Chloro-4-(2-ethyl-cyclohexyloxy)-benzonitrile] |  | 6.48 | 7.52 |  | 
13 | N#Cc1ccc(O[C@H]2CC3CC[C@@H]2C3)cc1Cl (stereo in doubt) [Example 24, 4-(R)-(Bicyclo[2.2.1]hept-2-yloxy)-2-chloro-benzonitrile] |  |  | 6.97 |  | 7.82
14 | N#Cc1ccc(O[C@H]2CCCCC2c2ccccc2)cc1Cl (stereo in doubt) [Example 33, 2-Chloro-4-(2-(S)-phenyl-(S)-cyclohexyloxy)-benzonitrile] |  | 6.31 | 7.22 |  | 
